Measured values as given in patent US20250255888A1, “Use of Baby Aspirin with Diphenhydramine or other Sleep Aids” (priority 2024, published 2025).
Counter-ions that a name gives are not always drawn.

Experiment: Self-reported use as a sleep aid at night: sleep and morning aftereffects (applicant and two friends)
Assay type: in vivo
Details: patent applicant, taken for sleep, morning after; worse with less than seven hours of sleep
Description: They further recommended same to two of their close friends who had complained of same aftereffects of Benadryl.
When aspirin was used with other sleep aids that contain diphenhydramine as an active ingredient, similar result was obtained.

In the case of `CN(C)CCOC(c1ccccc1)c1ccccc1` [Benadryl, diphenhydramine HCL], the “aftereffects in the morning (poor sleep quality, lingering drowsiness, difficulty concentrating)” value is reported as “would experience some of the aftereffects of Benadryl such as poor sleep quality, lingering drowsiness or difficulty concentrating”.
